The target of one series is T1, BT4244-CBM32 (Bacteroides thetaiotaomicron, UniProt Q89ZX7).
T1 construct: gene BT_4244
T1 sequence (Q89ZX7 145-285 limits assumed): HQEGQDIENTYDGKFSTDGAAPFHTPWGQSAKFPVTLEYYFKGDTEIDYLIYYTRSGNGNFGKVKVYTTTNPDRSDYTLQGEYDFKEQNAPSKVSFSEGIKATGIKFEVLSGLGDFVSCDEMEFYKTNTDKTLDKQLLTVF
The experiment in a line: ITC. It counts as binding. Conditions: 20 mM Tris-HCl pH 7.5, 25 °C; single-site model.

Another series has as its target T2, BT4245-SGBP (Bacteroides thetaiotaomicron, UniProt Q89ZX6).
T2 construct: gene BT_4245; full-length mature protein, signal peptide removed, His-tagged, from E. coli
T2 sequence (Q89ZX6 21-430): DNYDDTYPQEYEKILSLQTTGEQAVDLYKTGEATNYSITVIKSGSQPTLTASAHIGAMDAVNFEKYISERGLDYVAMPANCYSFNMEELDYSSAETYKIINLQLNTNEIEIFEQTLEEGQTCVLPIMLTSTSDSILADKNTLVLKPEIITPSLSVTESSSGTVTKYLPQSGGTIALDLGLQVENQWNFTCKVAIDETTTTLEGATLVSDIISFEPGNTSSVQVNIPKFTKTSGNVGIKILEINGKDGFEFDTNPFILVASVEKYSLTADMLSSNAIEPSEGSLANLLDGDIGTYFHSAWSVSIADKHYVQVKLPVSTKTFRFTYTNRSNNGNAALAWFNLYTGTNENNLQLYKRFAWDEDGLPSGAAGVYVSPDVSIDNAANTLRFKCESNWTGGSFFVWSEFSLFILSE
Kind of series: ITC. Conditions: 20 mM Tris-HCl pH 7.5, 25 °C; single-site model. Type of series: binding.

The target in series [1] is T3, BT4246-SusD-like (Bacteroides thetaiotaomicron, UniProt Q89ZX5).
T3 sequence (Q89ZX5 25-642): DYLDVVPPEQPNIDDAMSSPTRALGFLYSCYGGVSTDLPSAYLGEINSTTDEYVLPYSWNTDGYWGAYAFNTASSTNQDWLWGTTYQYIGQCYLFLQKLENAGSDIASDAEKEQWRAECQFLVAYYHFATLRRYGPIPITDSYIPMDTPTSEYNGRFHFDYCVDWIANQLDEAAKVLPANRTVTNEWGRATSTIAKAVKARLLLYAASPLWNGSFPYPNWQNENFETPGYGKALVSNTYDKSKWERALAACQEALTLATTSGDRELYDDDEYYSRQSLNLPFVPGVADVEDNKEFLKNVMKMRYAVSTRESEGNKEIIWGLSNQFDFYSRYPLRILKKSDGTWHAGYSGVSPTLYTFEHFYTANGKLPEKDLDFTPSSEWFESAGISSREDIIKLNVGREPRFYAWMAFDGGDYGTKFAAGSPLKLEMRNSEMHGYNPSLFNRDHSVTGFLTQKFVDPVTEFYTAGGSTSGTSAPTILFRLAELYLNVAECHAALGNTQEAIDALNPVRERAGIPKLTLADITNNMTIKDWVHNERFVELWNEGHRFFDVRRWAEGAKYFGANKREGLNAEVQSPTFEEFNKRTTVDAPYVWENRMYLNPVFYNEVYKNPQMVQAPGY
Kind of series: X-ray crystal structure, […] Å. Type of series: binding. Set-up: gene BT_4246; residues 25-642, His-tag removed by TEV protease, from E. coli (crystal). Conditions: crystals soaked in 4% PGMIII O-glycan oligosaccharides; only the terminal Gal of an undefined oligosaccharide is modelled, not free galactose.

Series [2] addresses T3, BT4246-SusD-like. Kind of series: ITC. Type of series: binding. Details: gene BT_4246; mature form, signal peptide removed, His-tagged, from E. coli (ITC). Conditions: 20 mM Tris-HCl pH 7.5, 25 °C; single-site model.
Substrate in series [3]: CC(=O)N[C@H]1[C@@H](Oc2ccc([N+](=O)[O-])cc2)O[C@H](CO)[C@H](O)[C@@H]1O
The experiment in a line: 4-nitrophenol release at A400. It counts as biochemical, Bacteroides thetaiotaomicron. Conditions: 20 mM MOPS pH 7.0, 37 °C, 0.4 µM enzyme. Here is the method:
4-nitrophenol release at A400 on BT4243-GH109 | between GalNAc and serine in Tn antigen as well as PNP-α-GalNAc | enzyme (final) was added to substrate (PNP-α-GalNAc or PNP-β-GalNAc, respectively)

A value given as a limit tells only on which side of the number the result lay.

In the case of `OC[C@H]1OC(O)[C@H](O)[C@@H](O)[C@H]1O` (some centres unmarked) [Gal], the Ka at BT4244-CBM32 is recorded as 0.16 (±0.01) × 10^4; at BT4245-SGBP it was > 0.1 × 10^4.
On to `CC(=O)N[C@H]1C(O)O[C@H](CO)[C@H](O)[C@@H]1O` (some centres unmarked) [GalNAc], for which the Ka is reported as 0.40 (±0.03) × 10^4 at BT4244-CBM32 and 1.20 (±0.2) × 10^4 on BT4245-SGBP.
In the case of `OC[C@H]1OC(O)[C@H](O)[C@@H](O)[C@H]1O` (some centres unmarked) [terminal Gal from a mucin O-glycan oligosaccharide], the “X-ray crystal structure, 1.8 Å” value at BT4246-SusD-like [1] is “In the resulting structure, unambiguous electron density was observed for a β-linked Gal”.
`CC(=O)N[C@H]1C(O)O[C@H](CO)[C@H](O)[C@@H]1O[C@@H]1O[C@H](CO)[C@H](O)[C@H](O)[C@H]1O` (some centres unmarked) [core 1 disaccharide]: the Ka is given as 0.20 (±0.01) × 10^4 on BT4244-CBM32 and 0.45 (±0.03) × 10^4 at BT4246-SusD-like [2].
Take `OC[C@H]1O[C@@H](O[C@H]2[C@H](O)[C@@H](O)C(O)O[C@@H]2CO)[C@H](O)[C@@H](O)[C@H]1O` (some centres unmarked) [lactose]: at BT4244-CBM32, the Ka is 0.23 (±0.00) × 10^4.
Regarding `CC(=O)N[C@H]1C(O)O[C@H](CO)[C@@H](O)[C@@H]1O[C@@H]1O[C@H](CO)[C@H](O)[C@H](O)[C@H]1O` (some centres unmarked) [lacto-N-biose], at BT4246-SusD-like [2], the Ka was 0.13 (±0.07) × 10^4.

B1: BT4243-GH109 (Bacteroides thetaiotaomicron VPI-5482) (protein)
chain: QKTKAKFSPIKVETPARPANQQDVIQLVTPKLETVRVGFIGLGMRGPGAVERWTHIPGTQIVALCDLLPERVENAQKILEKAGLPKAASYAGDEKAWKKLCERDDIDVVYIATDWKHHADMGVYAMEHGKHVAIEVPAAMTLDEIWKLINTSEKTRKHCMQLENCVYDFFELTSLNMAQQGVFGEVLHVEGAYIHNLEDFWPYYWNNWRMDYNQKHRGDVYATHGMGPACQVLNIHRGDRMKTLVAMDTKAVNGPAYIKKSTGKEVKDFQNGDQTTTLIRTENGKTMLIQHNVMTPRPYSRMYQVVGADGYASKYPIEEYCLRPTQVDSNDVPNHEKLNAHGSVSEDVKKALMAKYKDPIHKELEETAKKVGGHGGMDYIMDYRLVYCLRNGLPLDMDVYDLAEWCCMAELTRLSIENGSAPVEVPDFTRGGWNKVQGYRHAFAE
notes: mature form, signal peptide removed, His-tagged, from E. coli
On to B1, for which, in series [3], the Km is recorded as 0.03 (±0.005) mM and the kcat is 2.1 (±0.3) s-1.

These data come from publication PMC11992087, “A Bacteroides thetaiotaomicron genetic locus encodes activities consistent with mucin O-glycoprotein processing and N-acetylgalactosamine metabolism” (Nature Communications, 2025).
